According to patent US20230382889A1 (Volastra Therapeutics, Inc., priority 2022, published 2023):

Tests used:
HCC15 cells = test: Cell viability of KIF18a-sensitive cell lines, HCC15 (Cell Titre-Glo, 7 days); format: cell-based; conditions: 168 h; HCC15, 7 days; read-out: HCC15 IC50
Protocol: (§1) Cell lines were seeded as follows 24 hours before compound treatment: HCC15 (Korean Cell Line Bank) 600 cell/well, 95 μL of RPMI-1640 media supplemented with 100 units/mL penicillin, 100 units/mL streptomycin and 10% FBS; NIH:OVCAR-3 (ATCC), 1000 cell/well, 95 μL of RPMI-1640 media supplemented with 100 units/mL penicillin, 100 units/mL streptomycin, 0.01 mg/mL bovine insulin, and 20% FBS; JIMT-1 (Addexbio) 1000 cell/well, 95 μL of DMEM media supplemented with 100 units/mL penicillin, 100 units/mL streptomycin, and 10% FBS.
(§2) Test compounds were added to cells in a 20× dilution scheme by adding 5 μL of serially diluted compound to the plate, and the treated cells were incubated for an additional 7 days in a 37° C., 5% CO2 incubator. DMSO was used as the negative control (0% effect), and wells omitting cells were used as the positive control (100% effect). The cells were incubated for seven days, and cell viability determined via the Promega Cell Titre-Glo® Assay kit. Luminescence units were converted to ATP concentrations via an ATP standard curve (10 point, 2-fold dilution from 5 uM). % Inhibition was calculated for each well as: ([max−min]−[test−min])/[max−min]. IC50 values were calculated from concentration vs. % Inhibition data via a four-parameter variable slope model.

NIH:OVCAR-3 cells = test: Cell viability of KIF18a-sensitive cell lines, NIH:OVCAR-3 (Cell Titre-Glo, 7 days); format: cell-based; conditions: Homo sapiens, OVCAR-3, 168 h; NIH:OVCAR3, 7 days; read-out: NIH:OVCAR3 IC50
Protocol: as §1, §2

JIMT-1 cells = test: Cell viability of KIF18a-sensitive cell lines, JIMT-1 (Cell Titre-Glo, 7 days); format: cell-based; conditions: Homo sapiens, 168 h; JIMT-1, 7 days; read-out: JIMT-1 IC50
Protocol: as §1, §2

hKIF18A (1-374) = hKIF18A (1-374) (Homo sapiens (Human), UniProt Q8NI77); test: Inhibition of KIF18A microtubule-dependent ATPase activity (ADP-Glo); format: biochemical; conditions: 4 nM hKIF18A (1-374)
Summary of the method: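 Reaction was started with pre-formed microtubules and ATP (0.2 mg/mL and 2.0 mM in the added mix) and run 60 min at 28 °C. ADP was read by ADP-Glo luminescence, and IC50 came from a four-parameter fit of % inhibition.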

[1] = molecular target: KIF18a-microtubule complex (Homo sapiens (Human), UniProt Q8NI77); test: Binding kinetics to KIF18a-microtubule complex (global progress curve analysis); conditions: for kon (on-rate from binding kinetics assay) / koff: KIF18A 0.25 nM, up to 24 hr; for koff: read-out: koff (off-rate from binding kinetics assay) (converted); for Ki: koff/kon, read-out: KI (determined from binding kinetic assay koff/kon)
Protocol: Compound binding kinetics parameters (kon and koff) were determined by the method of global progress curve analysis (GPCA). […] ADP product levels were determined by the Promega® ADP-Glo assay.

HCC15 tumor cells = test: In vivo activity, HCC15 xenograft tumor growth inhibition; conditions: HCC15 model, SCID Beige mice, FIG. 2
Protocol: (§3) OVCAR-3 (ATCC) tumor cells were maintained in vitro in RPMI-1640 medium supplemented with 20% fetal bovine serum, 0.01 mg/mL bovine insulin and 1% Anti-Anti at 37° C. in an atmosphere of 5%/CO2 in air. HCC15 (DSMZ) tumor cells were maintained in vitro in RPMI 1640 medium supplemented with 10% fetal bovine serum and 1% Anti-Anti at 37° C. in an atmosphere of 5% CO2 in air.
(§4) The tumor cells were sub-cultured twice weekly. The cells growing in an exponential growth phase were harvested and counted for tumor inoculation.
(§5) Tumor cells (10×106) in 0.2 mL of PBS mixed with Matrigel (50:50) were inoculated subcutaneously on the right flank of each mouse. When the average tumor volume reached 110-175 mm^3, animals were randomized into groups of 10 and treatment started. OVCAR-3 cells were implanted in Balb/C nude mice, and HCC15 cell were implanted in SCID Beige mice.
(§6) Compounds were dosed once or twice a day (12 h) orally. Tumor Growth Inhibition (TGI) was calculated using the formula: TGI (%)=[1−(TN−T0)/(VN−V0)]×100; TN is the average tumor volume of a treatment group at the indicated timepoint, T0 is the average tumor volume of the treatment group on treatment day 0, VN is the average tumor volume of the vehicle control group at the indicated timepoint, and V0 is the average tumor volume of the vehicle group on treatment day 0. P value was calculated based on tumor size by One-Way ANOVA with GraphPad Prism 9.4.0 compared with the vehicle group, respectively. **** indicates p<0.0001.
(§7) The tumor volume of vehicle- and compound-treated mice as a function of time after start of treatment and the results of treatments with selected compounds on SCID Beige mice or nude mice implanted with HCC15 or OVCAR-3 are shown in FIGS. 1 and 2. The TGI calculated for treatments with selected compounds are shown in Table 11.

OVCAR-3 tumor cells = test: In vivo activity, OVCAR-3 xenograft tumor growth inhibition; conditions: OVCAR3 model, Balb/C nude mice, FIG. 1
Protocol: as §3, §4, §5, §6, §7

hKIF18A (1-374), sequence (Q8NI77 1-374): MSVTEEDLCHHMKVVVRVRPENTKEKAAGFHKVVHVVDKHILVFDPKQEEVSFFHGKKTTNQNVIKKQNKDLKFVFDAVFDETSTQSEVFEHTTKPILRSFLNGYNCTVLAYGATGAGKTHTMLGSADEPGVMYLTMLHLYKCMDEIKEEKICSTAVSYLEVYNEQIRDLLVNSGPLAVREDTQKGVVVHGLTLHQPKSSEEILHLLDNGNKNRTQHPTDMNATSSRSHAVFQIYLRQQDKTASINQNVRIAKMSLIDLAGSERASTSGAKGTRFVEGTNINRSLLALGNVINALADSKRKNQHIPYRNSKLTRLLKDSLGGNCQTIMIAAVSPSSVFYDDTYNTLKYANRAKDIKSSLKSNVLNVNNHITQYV
KIF18a-microtubule complex, sequence (Q8NI77 1-374, one chain of several): as the sequence (Q8NI77 1-374) above

Row | IC50 (HCC15 cells) | IC50 (NIH:OVCAR-3 cells) | IC50 (hKIF18A (1-374)) | kon (on-rate from binding kinetics assay) [1] | koff [1] | Ki [1] | disc. t1/2 (dissociation half-life ln(2)/koff) [1] | Compound | IC50 (JIMT-1 cells) | TGI (HCC15 tumor cells; 3 mg/kg QD PO) | TGI (HCC15 tumor cells; 10 mg/kg QD PO) | TGI (HCC15 tumor cells; 30 mg/kg QD PO) | TGI (OVCAR-3 tumor cells; 3 mg/kg QD PO) | TGI (OVCAR-3 tumor cells; 10 mg/kg QD PO) | TGI (OVCAR-3 tumor cells; 30 mg/kg QD PO)
1 | 120 nM | 210 nM | 9.2 nM | 4720 M⁻¹ s⁻¹ | 6.67e-05 s⁻¹ | 14 nM | 2.9 h | CS(=O)(=O)Nc1ccc(-c2ncc(-c3cccc(N4CCOCC4)n3)[nH]2)c(N2CCC3(CC2)CC3)c1 [Compound 10, N-(4-(5-(6-morpholinopyridin-2-yl)-1H-imidazol-2-yl)-3-(6-azaspiro[2.5]octan-6-yl)phenyl)methanesulfonamide] | 130 nM |  |  |  |  |  | 
2 | 13 nM | 23 nM | 23 nM | 36100 M⁻¹ s⁻¹ | 4.44e-06 s⁻¹ | 0.13 nM | 43 h | CS(=O)(=O)Nc1ccc(-n2cc(-c3cccc(N4CCC(F)(F)CC4)n3)nn2)c(N2CCC3(CC2)CC3)c1 [Compound 11, N-(4-(4-(6-(4,4-difluoropiperidin-1-yl)pyridin-2-yl)-1H-1,2,3-triazol-1-yl)-3-(6-azaspiro[2.5]octan-6-yl)phenyl)methanesulfonamide] | 9.1 nM |  |  |  |  |  | 
3 | 110 nM | 200 nM | 21 nM | 6670 M⁻¹ s⁻¹ | 5.83e-05 s⁻¹ | 8.7 nM | 3.3 h | CS(=O)(=O)Nc1ccc(-c2ncc(-c3cccc(N4CCC(F)(F)CC4)n3)[nH]2)c(N2CCC3(CC2)CC3)c1 [Compound 9, N-(4-(5-(6-(4,4-difluoropiperidin-1-yl)pyridin-2-yl)-1H-imidazol-2-yl)-3-(6-azaspiro[2.5]octan-6-yl)phenyl)methanesulfonamide] | 100 nM |  |  |  |  |  | 
4 | 3.9 nM | 5.5 nM | 6.6 nM | 30600 M⁻¹ s⁻¹ | 6.67e-06 s⁻¹ | 0.21 nM | 28 h | O=S(=O)(CCO)Nc1ccc(-n2cc(-c3cccc(N4CCC(F)(F)CC4)n3)nn2)c(N2CCC3(CC2)CC3)c1 [Compound 45, N-(4-(4-(6-(4,4-difluoropiperidin-1-yl)pyridin-2-yl)-1H-1,2,3-triazol-1-yl)-3-(6-azaspiro[2.5]octan-6-yl)phenyl)-2-hydroxyethane-1-sulfonamide] | 6.9 nM |  |  |  |  |  | 
5 | 28 nM | 21 nM | 12 nM | 21900 M⁻¹ s⁻¹ | 1.81e-05 s⁻¹ | 0.82 nM | 11 h | Cc1cc(-c2cn(-c3ccc(NS(=O)(=O)CCO)cc3N3CCCCC3)nn2)nc(N2CCC(F)(F)CC2)c1 [Compound 68, N-(4-(4-(6-(4,4-difluoropiperidin-1-yl)-4-methylpyridin-2-yl)-1H-1,2,3-triazol-1-yl)-3-(piperidin-1-yl)phenyl)-2-hydroxyethane-1-sulfonamide] | 30 nM |  |  |  |  |  | 
6 | 12 nM | 18 nM | 6.6 nM | 21900 M⁻¹ s⁻¹ | 1.14e-05 s⁻¹ | 0.52 nM | 17 h | CS(=O)(=O)Nc1ccc(-n2cc(-c3cccc(N4CCC(F)(F)CC4)n3)nn2)c(N2CCCCC2)c1 [Compound 15, N-(4-(4-(6-(4,4-difluoropiperidin-1-yl)pyridin-2-yl)-1H-1,2,3-triazol-1-yl)-3-(piperidin-1-yl)phenyl)methanesulfonamide] | 12 nM |  |  |  |  |  | 
7 | 29 nM | 32 nM | 6 nM | 36100 M⁻¹ s⁻¹ | 1.94e-05 s⁻¹ | 0.53 nM | 9.9 h | O=S(=O)(CCO)Nc1ccc(-n2cc(-c3csc(N4CCC(F)(F)CC4)n3)nn2)c(N2CCC3(CC2)CC3)c1 [Compound 69, N-(4-(4-(2-(4,4-difluoropiperidin-1-yl)thiazol-4-yl)-1H-1,2,3-triazol-1-yl)-3-(6-azaspiro[2.5]octan-6-yl)phenyl)-2-hydroxyethane-1-sulfonamide] | 38 nM |  |  |  |  |  | 
8 | 51 nM | 47 nM | 22 nM | 12200 M⁻¹ s⁻¹ | 2.06e-05 s⁻¹ | 1.7 nM | 9.4 h | Cc1cc(-c2cn(-c3ccc(NS(=O)(=O)CCO)cc3N3CCCCC3)nn2)nc(N2CCC(F)(F)CC2)n1 [Compound 67, N-(4-(4-(2-(4,4-difluoropiperidin-1-yl)-6-methylpyrimidin-4-yl)-1H-1,2,3-triazol-1-yl)-3-(piperidin-1-yl)phenyl)-2-hydroxyethane-1-sulfonamide] | 66 nM |  |  |  |  |  | 
9 | 3.3 nM | 4.4 nM | 15 nM |  |  |  |  | CCS(=O)(=O)Nc1ccc(-c2cn(-c3cccc(S(=O)(=O)NC(C)(C)C)c3)nn2)c(N2CCC3(CC2)CC3)c1 [Compound 110, N-(tert-butyl)-3-(4-(4-(ethylsulfonamido)-2-(6-azaspiro[2.5]octan-6-yl)phenyl)-1H-1,2,3-triazol-1-yl)benzenesulfonamide] | 6.8 nM |  |  |  |  |  | 
10 | 29 nM | 40 nM | 36 nM |  |  |  |  | Cc1cc(-c2cn(-c3ccc(NS(=O)(=O)C4(CO)CC4)cc3N3CCCCC3)nn2)nc(N2CCC(F)(F)CC2)n1 [Compound 91, N-(4-(4-(2-(4,4-difluoropiperidin-1-yl)-6-methylpyrimidin-4-yl)-1H-1,2,3-triazol-1-yl)-3-(piperidin-1-yl)phenyl)-1-(hydroxymethyl)cyclopropane-1-sulfonamide] | 35 nM |  |  |  |  |  | 
11 | 9.2 nM | 13 nM | 19 nM | 14400 M⁻¹ s⁻¹ | 2.78e-06 s⁻¹ | 0.2 nM | 68 h | Cc1cc(-c2cn(-c3ccc(NS(=O)(=O)CCO)cc3N3CCC4(CC3)CC4)nn2)nc(N2CCC(F)(F)CC2)n1 [Compound 47, N-(4-(4-(2-(4,4-difluoropiperidin-1-yl)-6-methylpyrimidin-4-yl)-1H-1,2,3-triazol-1-yl)-3-(6-azaspiro[2.5]octan-6-yl)phenyl)-2-hydroxyethane-1-sulfonamide] | 16 nM | 64 ± 7% | 83 ± 4% | 87 ± 4% | 44 ± 11% | 119 ± 1% | 120 ± 1%
